Source: US20170066717A1, “NEW PHENYLAZETIDINECARBOXYLATE OR -CARBOXAMIDE COMPOUNDS” (INVENTIVA, priority 2014, published 2017)

Tests used:
NURR-1/RXRα = target: T1, NURR-1/RXRα (Homo sapiens, UniProt P19793); experiment: Transactivation test, NURR-1-Gal4/RXRα, luciferase reporter in Cos-7 cells; type: cell-based; conditions: for Emax: COS-7, induction level relative to reference XCT0135908 at 2×10^−5 M (=100%), read-out: hNurr1_RXRaFL Emax (%); for EC50: Cos-7 cells, NURR-1-Gal4/RXRα, luciferase reporter, read-out: hNurr1_RXRaFL EC50
T1 construct: expressed in transfected cells; host or cells: Cos-7 cells
T1 sequence (P19793 whole entry, the tested form may be a part): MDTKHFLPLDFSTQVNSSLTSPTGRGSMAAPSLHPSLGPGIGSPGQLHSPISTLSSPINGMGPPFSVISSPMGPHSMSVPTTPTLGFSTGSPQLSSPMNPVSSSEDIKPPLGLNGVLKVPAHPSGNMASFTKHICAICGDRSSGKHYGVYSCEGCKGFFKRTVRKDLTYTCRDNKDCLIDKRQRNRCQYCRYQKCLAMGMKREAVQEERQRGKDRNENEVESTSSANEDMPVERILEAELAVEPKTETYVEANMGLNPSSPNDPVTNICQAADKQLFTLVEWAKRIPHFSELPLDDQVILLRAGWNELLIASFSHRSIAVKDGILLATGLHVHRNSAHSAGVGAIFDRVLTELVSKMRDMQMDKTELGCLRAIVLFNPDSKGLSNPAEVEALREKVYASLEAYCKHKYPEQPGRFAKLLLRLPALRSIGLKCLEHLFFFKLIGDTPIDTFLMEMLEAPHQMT
T1 sequence (P43354 whole entry partner, the tested form may be a part): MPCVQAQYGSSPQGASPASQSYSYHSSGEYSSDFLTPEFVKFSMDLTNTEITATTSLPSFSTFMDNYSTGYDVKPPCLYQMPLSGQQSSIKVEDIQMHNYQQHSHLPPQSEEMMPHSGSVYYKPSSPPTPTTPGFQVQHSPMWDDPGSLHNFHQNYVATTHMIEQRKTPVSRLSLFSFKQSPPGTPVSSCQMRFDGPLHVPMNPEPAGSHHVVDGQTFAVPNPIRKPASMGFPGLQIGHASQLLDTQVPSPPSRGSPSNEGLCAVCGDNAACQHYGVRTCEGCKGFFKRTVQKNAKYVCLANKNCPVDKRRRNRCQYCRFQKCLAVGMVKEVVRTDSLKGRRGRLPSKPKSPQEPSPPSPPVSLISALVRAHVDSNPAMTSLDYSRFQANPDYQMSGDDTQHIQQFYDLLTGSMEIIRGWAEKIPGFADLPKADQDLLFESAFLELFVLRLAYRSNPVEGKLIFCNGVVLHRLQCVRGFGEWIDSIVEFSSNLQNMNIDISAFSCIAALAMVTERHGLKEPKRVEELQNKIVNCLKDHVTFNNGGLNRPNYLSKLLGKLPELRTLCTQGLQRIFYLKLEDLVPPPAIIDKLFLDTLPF
T1 sequence (P04386 1-147 partner limits assumed): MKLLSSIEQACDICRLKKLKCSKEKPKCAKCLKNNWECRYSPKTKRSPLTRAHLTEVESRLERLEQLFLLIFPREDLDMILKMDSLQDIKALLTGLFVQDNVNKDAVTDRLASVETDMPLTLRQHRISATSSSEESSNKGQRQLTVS
Protocol: (§1) The ability of the compounds according to the invention to behave as an activator of the heterodimers formed by the NURR-1 nuclear receptor and the RXR nuclear receptors was measured by means of an in vitro test. A transactivation test was used as primary selection (screening) test. Cos-7 cells were cotransfected with a plasmid expressing a chimera of the human NURR-1-Gal4 receptor, a plasmid expressing the human RXR receptor (RXRα or RXRγ receptor) and a 5Gal4pGL3-TK-Luc reporter plasmid. The transfctions were carried out using a chemical agent (Jet PEI). The transfected cells were distributed into 384-well plates and left to stand for 21 hours. At time 24 hours the culture medium was changed. The test products were added (final concentration of between 10^''4 and 3×10^-10 M) to the culture medium. After incubation overnight, the lucifeiase expression was measured after addition of SteadyGlo according to the instructions of the manufacturer (Promega). […] The induction levels (Emax) were calculated relative to the basal activity of each heterodimer.

NURR-1/RXRγ = target: T2, NURR-1/RXRγ (Homo sapiens, UniProt P48443); experiment: Transactivation test, NURR-1-Gal4/RXRγ, luciferase reporter in Cos-7 cells; type: cell-based; conditions: for Emax: COS-7, induction level relative to reference XCT0135908 at 2×10^−5 M (=100%), read-out: hNurr1_RXRgFL Emax (%); for EC50: Cos-7 cells, NURR-1-Gal4/RXRγ, luciferase reporter, read-out: hNurr1_RXRgFL EC50
T2 construct: expressed in transfected cells; host or cells: Cos-7 cells
T2 sequence (P48443 whole entry, the tested form may be a part): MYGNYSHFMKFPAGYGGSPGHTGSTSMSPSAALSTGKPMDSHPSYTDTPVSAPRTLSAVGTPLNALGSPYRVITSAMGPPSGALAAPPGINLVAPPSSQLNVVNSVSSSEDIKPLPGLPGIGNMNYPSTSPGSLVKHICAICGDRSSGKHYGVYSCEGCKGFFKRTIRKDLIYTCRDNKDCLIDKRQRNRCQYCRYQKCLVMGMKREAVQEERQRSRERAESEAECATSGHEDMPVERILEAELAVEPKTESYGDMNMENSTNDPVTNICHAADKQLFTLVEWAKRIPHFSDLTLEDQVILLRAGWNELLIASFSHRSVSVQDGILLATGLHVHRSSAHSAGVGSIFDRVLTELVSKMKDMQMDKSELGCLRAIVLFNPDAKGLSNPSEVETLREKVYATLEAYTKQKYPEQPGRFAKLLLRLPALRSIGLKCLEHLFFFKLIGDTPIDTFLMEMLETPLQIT
T2 sequence (P43354 whole entry partner, the tested form may be a part): as the sequence (P43354 whole entry partner, the tested form may be a part) above
T2 sequence (P04386 1-147 partner limits assumed): as the sequence (P04386 1-147 partner limits assumed) above
Protocol: as §1

[1] = induction level relative to reference XCT0135908 at 2×10^−5 M (=100%)

Row | Compound | Emax (NURR-1/RXRα) | EC50 (NURR-1/RXRα) | Emax (NURR-1/RXRγ) | EC50 (NURR-1/RXRγ) | hNurr1_RXRaFL Emax (%) (NURR-1/RXRα; [1]) | hNurr1_RXRgFL Emax (%) (NURR-1/RXRγ; [1])
1 | CN1CC(C)(C)Oc2cc(C(F)(F)F)cc(-c3cccc(N4CC(C(=O)O)C4)c3)c21 [Example 63, 1-[3-[2,2,4-trimethyl-7-(trifluoromethyl)-3H-1,4-benzoxazine-5-yl]phenyl]azetidine-3-carboylic acid] | 86% | 2 nM | 82% | 5 nM |  | 
2 | CCCC1CNc2c(cc(C(F)(F)F)cc2-c2cccc(N3CC(C(=O)O)C3)c2)O1 (centres unmarked) [Example 67, 1-[3-[2-propyl-7-(trifluoromethyl)-3,4-dihydro-2H-1,4-benzoxazin-5-yl]phenyl]azetidine-3-carboxylic acid] | 67% | 25 nM | 82% | 28 nM |  | 
3 | CCCNc1ccc(C(C)C)cc1-c1cccc(N2CC(C(=O)O)C2)c1 [Example 68, 1-[3-[5-isopropyl-2-(propylamino)phenyl]phenyl]azetidine-3-carboxylic acid] | 127% | 9 nM | 143% | 12 nM |  | 
4 | O=C(O)C1CN(c2cccc(-c3cnc(Cl)c(C(F)(F)F)c3)c2)C1 [Example 77, 1-[3-[6-chloro-5-(trifluoromethyl)-3-pyridyl]phenyl]azetidine-3-carboxylic acid] | 67% | 423 nM | 105% | 1200 nM |  | 
5 | O=C(O)C1CN(c2cccc(-c3cc(Cl)nc(C(F)(F)F)c3)c2)C1 [Example 78] | 93% | 207 nM | 98% | 339 nM |  | 
6 | CN(C)c1cc(C(F)(F)F)cc(-c2cccc(N3CC(C(=O)O)C3)c2)n1 [Example 80, 1-[3-[6-(dimethylamino)-4-(trifluoromethyl)2-pyridyl]phenyl]azetidine-3-carboxylic acid] | 104% | 316 nM | 89% | 335 nM |  | 
7 | CC(C)(C)c1cc(-c2cccc(N3CC(C(=O)O)C3)c2)nc(C(C)(C)C)n1 [Example 81, 1-[3-(2,6-di-tert-butylpyrimidin-4-yl)phenyl]azetidine-3-carboxylic acid] | 108% | 50 nM | 107% | 112 nM |  | 
8 | O=C(O)C1CN(c2cccc(-c3cc(OC(F)(F)F)cc4cccnc34)c2)C1 [Example 83, 1-[3-[6-(trifluoromethoxy)-8-quinolyl]phenyl]azetidine-3-carboxylic acid] | 67% | 282 nM | 68% | 596 nM |  | 
9 | CC(C)(C)c1cccc(-c2cccc(N3CC(C(=O)O)C3)c2)c1 [Example 84, 1-[3-(3-tert-butylphenyl)phenyl]azetidine-3-carboxylic acid] | 112% | 44 nM | 120% | 82 nM |  | 
10 | CC1(C(=O)O)CN(c2cccc(-c3ccc4c(c3)C(C)(C)CCC4(C)C)c2)C1 [Example 87] | 69% | > 5000 nM | 38% | > 5000 nM |  | 

Continued, values first:

Row | Emax (NURR-1/RXRα) | EC50 (NURR-1/RXRα) | Emax (NURR-1/RXRγ) | EC50 (NURR-1/RXRγ) | hNurr1_RXRaFL Emax (%) (NURR-1/RXRα; [1]) | hNurr1_RXRgFL Emax (%) (NURR-1/RXRγ; [1]) | Compound
11 | 86% | 83 nM | 117% | 117 nM |  |  | Cc1cn(-c2cc(OC(F)(F)F)cc(N3CC(C(=O)O)C3)c2)c2ccc(C(F)(F)F)cc12 [Example 52, 1-[3-[3-methyl-5-(trifluoromethyl)indol-1-yl]-5-(trifluoromethoxy)phenyl]azetidine-3-carboxylic acid]
12 | 83% | 141 nM | 76% | 212 nM |  |  | Cc1cn(-c2cc(C(C)C)cc(N3CC(C(=O)O)C3)c2)c2ccc(C(F)(F)F)cc12 [Example 53, 1-[3-isopropyl-5-[3-methyl-5-(trifluoromethyl)indol-1-yl]phenyl]azetidine-3-carboxylic acid]
13 | 76% | 1400 nM | 100% | 2240 nM |  |  | Cc1cn(-c2cc(OC(C)C)cc(N3CC(C(=O)O)C3)c2)c2ccc(C(F)(F)F)cc12 [Example 54, 1-[3-isopropoxy-5-[3-methyl-5-(trifloruomethyl)indol-1-yl]phenyl]azetidine-3-carboxylic acid]
14 | 80% | 189 nM | 73% | 218 nM |  |  | Cc1cc(N2CC(C)(C(=O)O)C2)cc(-n2cc(C)c3cc(C(F)(F)F)ccc32)c1 [Example 55, 3-methyl-1-[3-methyl-5-[3-methyl-5-(trifluoromethyl)indol-1-yl]phenyl]azetidine-3-carboxylic acid]
15 | 46% | > 5000 nM | 38% | 1080 nM |  |  | Cc1cn(-c2cc(N3CC(C(=O)O)C3)cc(C(C)(C)C)c2)c2ccc(C(F)(F)F)cc12 [Example 56, 1-[3-tert-butyl-5-[3-methyl-5-(trifluoromethyl)indol-1-yl]phenyl]azetidine-3-carboxylic acid]
16 |  | 1 nM |  | 2 nM | 126% | 114% | Cc1cc(N2CC(C(=O)O)C2)cc(-n2cc(Cl)c3cc(C(F)(F)F)ccc32)c1 [Example 57, 1-[3-[3-chloro-5-(triflurooemthyl)indol-1-yl]-5-methylphenyl]azetidine-3-carboxylic acid]
17 | 68% | 1380 nM | 39% | 3580 nM |  |  | Cc1cn(S(=O)(=O)c2cccc(N3CC(C(=O)O)C3)c2)c2ccc(C(F)(F)F)cc12 [Example 59, 1-[3-[3-methyl-5-(trifluoromethyl)indol-1-yl]sulfonylphenyl]azetidine-3-carboxylic acid]
18 | 40% | 898 nM | 24% | 1700 nM |  |  | Cc1cc(N2CC(C(=O)O)C2)cc(S(=O)(=O)n2cc(C)c3cc(C(F)(F)F)ccc32)c1 [Example 60, 1-[3-methyl-5-[3-methyl-5-(trifluoromethyl)indol-1-yl]sulfonylphenyl]azetidine-3-carboxylic acid]
19 | 104% | 9 nM | 120% | 12 nM |  |  | CC(C)c1cc2c(c(-c3cccc(N4CC(C(=O)O)C4)c3)c1)CCC(C)(C)O2 [Example 70, 1-[3-(7-isopropyl-2,2-dimethylchroman-5-yl)phenyl]azetidine-3-carboxylic acid]
20 | 121% | 185 nM | 86% | 223 nM |  |  | O=C(O)C1CN(c2cccc(-c3cc(C(F)(F)F)cc(Cl)n3)c2)C1 [Example 74, 1-[3-[6-chloro-4-(trifluoromethyl)2-pyridyl]phenyl]azetidine-3-carboxylic acid]
21 | 106% | 57 nM | 85% | 40 nM |  |  | CC(C)(C)c1cc(F)cc(-c2cccc(N3CC(C(=O)O)C3)c2)c1 [Example 75, 1-[3-(3-tert-butyl-5-fluorophenyl)phenyl]azetidine-3-carboxylic acid]
22 | 71% | 741 nM | 51% | 2560 nM |  |  | O=C(O)C1CN(c2cccc(-c3ccc(Cl)c(C(F)(F)F)n3)c2)C1 [Example 76, 1-[3-[5-chloro-6-(trifluromethyl)-2-pyridyl]phenyl]azetidine-3-carboxylic acid]
23 | 115% | 177 nM | 88% | 543 nM |  |  | CN(C)c1nc(-c2cccc(N3CC(C(=O)O)C3)c2)cc(C(F)(F)F)n1 [Example 79, 1-[3-[2-(dimethylamino)-6-(trifluoromethyl)pyrimidin-4-yl]phenyl]azetidine-3-carboxylic acid]
